The values that follow come from US4161598A, “1-Oxygenated-2,6-methano-3-benzazocines” (Sterling Drug Inc., priority 1977, dated 1979).

The test system of data set [1] is thermal stimulus applied to the tail. Briefly: Tail-flick Agonist Test. To be noted: for ED50: Rattus norvegicus, sc, 0.5 h; for activity as agonist: tail-flick test, result in words. In kind it is in vivo, Rats. On the procedure:
Rats normally respond to a thermal stimulus applied to the tail by flicking their tails out from under the heat source. The intensity of the stimulus utilized is one which produces control response-times (CRT) of 2-4 seconds. Experimental response-times (ERT) are determined 30 minutes after subcutaneous injections and 60 minutes after oral medications. […] Therefore, the maximum possible increase (MPI) in response-time for any given animal is 20 minus the CRT. The average percent effect, or percent of the maximum possible increase (%MPI) obtained after any given test compound treatment is calculated by the formula [formula] […] ED50 or ED80 values of active compounds are obtained by the Miller and Tainter [Proc. Soc. Exptl.
(In hot-plate and tail-flick tests a longer latency is read as antinociception.)

The subject of data set [2] is acetylcholine. Briefly: Anti-acetylcholine Writhing Test. It counts as in vivo, mice. The following applies: Mus musculus, 20 min. How it is done: This response has also been called writhing. Animals are pretreated with test compounds (20 minutes for both subcutaneous and oral routes) and observed for two minutes immediately following the administration of acetylcholine. Mice not responding during the two-minute observation period are scored protected while those responding one or more times are scored not protected. Test compounds are screened at doses of 75 and 25 mg./kg. subcutaneously or 150 and 50 mg./kg. orally. […] ED50 values for active compounds are estimated by probit analysis of quantal scores for 4 or more dosage levels using 15 animals per dose. Vehicle-pretreated control animals are tested concurrently with each run of 15 experimental animals.
Background: In writhing tests, fewer writhes than in controls are read as antinociception.

Data set [3] concerns narcotics. Briefly: Tail-flick Antagonist Test, narcotic not specified.
For data set [4], the system named is meperidine. Briefly: Tail-flick Antagonist Test against meperidine. The following applies: Rattus norvegicus.
The test system of data set [5] is ethylenediaminetetraacetic acid (EDTA). Briefly: EDTA Antinociceptive Test. In kind it is in vivo, guinea pig. To be noted: Cavia porcellus, sc, 0.5 h; subcutaneous; reduces response score to 6 or less. On the procedure: This is also a secondary evaluation of analgesic activity. The test animal is the guinea pig. A threshold intradermal dose of ethylenediaminetetraacetic acid (EDTA) which can reproducibly elicit a cumulative response score of 12-18 discrete episodes of jumping, rearing, running, vocalization and biting or scratching at the site of injection within 40 seconds after challenge is determined for each animal. Thirty minutes after the administration of saline or test compound to 6-7 animals per dose, each animal is again challenged with its own threshold dose of EDTA. An effective drug dose is considered to be one which reduces the response score to 6 or less.

The subject of data set [6] is bradykinin. Briefly: Anti-bradykinin Test. The following applies: Rattus norvegicus, 2 h. It counts as in vivo, Rats. How it is done:
This is a secondary evaluation of analgesic activity. […] The threshold dose of bradykinin required for production of the response is determined for each animal, and is readministered at fixed intervals during a two-hour period following the subcutaneous or oral administration of test compounds. In the control response marked rotation of the head and flexion of the forepaw are each scored +2, for a total response score (TRS) of +4. For post-medication scoring any decrease in head rotation or paw flexion from control is each scored +1, rather than +2, while no movement of either the head or paw is each scored 0. Therefore, the TRS following any bradykinin challenge can vary from 0 to 4. Animals whose TRSs are 0-0, 0-+1 or +1-0 after any two consecutive bradykinin challenges during the two-hour post-medication period are scored protected. […] ED50 values of active compounds are estimated by probit analysis of quantal scores from 4 or more dosage levels using 5 animals per dose. In addition the average TRSs obtained at each test interval with each treatment are plotted to permit examination of time-effect relationships and to provide a rough expression of drug effect using graded data. A vehicle-pretreated control animal is tested daily. Synthetic bradykinin from Sandoz Pharmaceuticals is diluted with saline to the proper concentrations for determination of threshold doses for producing the response. All bradykinin injections are made at a constant volume of 0.2 ml. per rat.

The subject of data set [7] is analgesic activity. Briefly: Analgesic activity, summary of the foregoing tests in experimental animals. In kind it is in vivo. The following applies: summary of the foregoing test results. On the procedure:
As stated above the compounds of Formula I are useful as analgesics and mostly also useful as narcotic antagonists as shown by tests in experimental animals. As presumptive tests of analgesia the anti-acetylcholine writhing, anti-phenylquinone writhing, anti-bradykinin and EDTA anti-nociceptive tests are carried out as follows: […]

In data set [8] the test system is morphine. Briefly: Tail-flick Antagonist Test against morphine. To be noted: Rattus norvegicus.
In data set [9] the test system is phenazocine. Briefly: Tail-flick Antagonist Test against phenazocine. The following applies: Rattus norvegicus.
Data set [10] has as its system phenyl-p-quinone (phenylquinone). Briefly: Anti-phenylquinone Writhing Test. In kind it is in vivo, mice. To be noted: Mus musculus. How it is done:
This test is used to confirm the anti-acetylcholine writhing test. The ability of compounds to prevent phenyl-p-quinone (phenylquinone)-induced writhing in mice is determined in this test. […] Animals are pretreated with test compounds (15 minutes for subcutaneous route, 30 minutes for oral route) and observed for three one-minute intervals during the 5-12 minutes following administration. Mice responsing fewer than three times during the three one-minute observation periods are scored protected while those responding three or more times are scored not protected. Test compounds are screened using 10-14 animals per treatment, usually at doses of 75-100 mg./kg. subcutaneously or 150-200 mg./kg. orally. […] ED50 values for active compounds are estimated by probit analysis of quantal scores for 3-5 dosage levels using 14-30 animals per dose. Vehicle-pretreated control animals are tested daily.

For data set [11] the following is noted: Ziering reference; all tests other than writhing; cited from earlier work.
The subject of data set [12] is meperidine. Briefly: meperidine antagonist activity in the rat. The following applies: as the free base.
In data set [13] the test system is morphine. Briefly: morphine antagonist activity in the rat. To be noted: as the free base.
Where [14] appears, read: subcutaneously, unit inferred, read-out: agonist ED50.
The mark [15] stands for this setting: sc, subcutaneous, form tested not given, read-out: Subcutaneous ED50 (95% Confidence Limits).
[16] abbreviates: tail-flick antagonist test, result in words.
The mark [17] stands for this setting: subcutaneous, 120 Mg./Kg. of Base.
Setting [18] is: sc, 10 min, read-out: Subcutaneous AD50 (95% Confidence Limits) Against Meperidine.
[19] abbreviates: po, read-out: ED50 (95% Confidence Limits), Oral.
Where [20] appears, read: sc, read-out: ED50 (95% Confidence Limits), Subcutaneous.
Setting [21] is: po, oral, read-out: ED50 (95% Confidence Limits), Oral.
The mark [22] stands for this setting: sc, subcutaneous, base, read-out: Subcutaneous ED50 (95% Confidence Limits).
The mark [23] stands for this setting: sc, subcutaneous, free base or acid addition salt, read-out: ED50 (95% Confidence Limits), Subcutaneous.
Setting [24] is: summary of the foregoing test results.
The mark [25] stands for this setting: po, 0.5 h, read-out: ED50 (95% Confidence Limits), Oral.
Where [26] appears, read: sc, 0.25 h, read-out: ED50 (95% Confidence Limits), Subcutaneous.

Where a name gives a salt, the structure may show the parent alone. Read-outs that look alike come from different tables or passages of the source.

A word on the minimal effective dose: it is the smallest amount tested that counted as effective. A lower minimal effective dose goes with an effect from little substance.

Regarding `C[C@H]1[C@H]2C(=O)c3ccc(O)cc3[C@]1(C)CCN2CC1CCC1` (relative stereo) [Example 35B, 1,2,3,4,5,6-hexahydro-1-oxo-3-cyclobutylmethyl-8-hydroxy-6(eq),11(ax)-dimethyl-2,6-methano-3-benzazocine], the ED50 in data set [1] (setting [14]) is 200 ± 49 mg/kg; in data set [2] (setting [15]) it was 3.9 mg/kg. The activity as agonist entry in data set [1] is reported as “weakly active”. Besides, in [3] (setting [16]), the narcotic antagonist activity entry was “inactive”.

`C[C@H]1[C@H]2C(=O)c3ccc(O)cc3[C@]1(C)CCN2CC1CC1` (relative stereo) [Example 1, 1,2,3,4,5,6-hexahydro-1-oxo-3-cyclopropylmethyl-8-hydroxy-6(eq),11(ax)-dimethyl-2,6-methano-3-benzazocine]: the “Percent Inhibition of Response, Oral” value in [1] (oral, 200 Mg./Kg. of Base) came to 11.2%. Also, in [1] (oral, 200 Mg./Kg. of Base), the dead is recorded as 1/6. Also, the righting reflex entry in data set [1] (oral, 200 Mg./Kg. of Base) is given as “partial loss”. The salivation entry in data set [1] (oral, 200 Mg./Kg. of Base) is listed as “slight”. The “Percent Inhibition of Response, Subcutaneous” value in data set [1] (setting [17]) is given as 2.3%. The “activity (observed side effect)” value in data set [1] (setting [17]) is reported as “decreased”. The observed side effect result in data set [1] (setting [17]) was “atoxia”. Also, the ED50 turned out to be 78 mg/kg in [4] (po, 20 min, read-out: AD50 (95% Confidence Limits) Against Meperidine, Oral); 7.2 mg/kg in data set [4] (sc, 10 min, read-out: AD50 (95% Confidence Limits) Against Meperidine, Subcutaneous); 2 mg/kg in data set [4] (setting [18]); 10 mg/kg in data set [6] (setting [19]); 0.069 mg/kg in [6] (setting [20]); 12 mg/kg in data set [2] (setting [21]). In addition, the ED50 amounted to 0.12 mg/kg in data set [2] (setting [22]); 0.16 mg/kg in data set [2] (setting [23]); 0.16 mg/kg in data set [2] (sc, subcutaneous, hydrochloride salt, read-out: Subcutaneous ED50 (95% Confidence Limits)); 0.16 mg/kg in [2] (sc, subcutaneous, methanesulfonate salt, read-out: Subcutaneous ED50 (95% Confidence Limits)); 91 mg/kg in data set [8] (po, 20 min, read-out: AD50 (95% Confidence Limits) Against Morphine, Oral); 4.9 mg/kg in [8] (sc, 10 min, read-out: AD50 (95% Confidence Limits) Against Morphine, Subcutaneous). The ED50 in [8] (sc, 10 min, read-out: Subcutaneous AD50 (95% Confidence Limits) Against Morphine) was 4 mg/kg; in data set [9] (po, 20 min, read-out: AD50 (95% Confidence Limits) Against Phenazocine, Oral), 63 mg/kg; in [9] (sc, 10 min, read-out: AD50 (95% Confidence Limits) Against Phenazocine, Subcutaneous) it was 5 mg/kg; in [9] (sc, 10 min, read-out: Subcutaneous AD50 (95% Confidence Limits) Against Phenazocine), 4.3 mg/kg; in data set [10] (setting [25]), 15.2 mg/kg; in data set [10] (setting [26]), 0.16 mg/kg. In addition, in data set [5], the minimal effective dose came out at 0.03 mg/kg. Further, the analgesic activity entry in data set [7] is “strong analgesic activity”. For the same molecule, the narcotic antagonist activity entry in data set [3] (setting [24]) is listed as “weak narcotic antagonist activity”.

With `COc1ccc2c(c1)[C@]1(C)CCN(C)[C@@H]([C@@H]1C)[C@@]2(O)c1ccccc1` (relative stereo) [Compound 13], the “activity in all other tests” value in [11] is “inactive”.

`COc1ccc2c(c1)[C@]1(C)CCN(C)[C@H](C2=O)[C@@H]1C` (relative stereo) [Compound 12]: in [12], the activity against meperidine entry is recorded as “weakly active”. Also, the activity against morphine entry in data set [13] is “inactive”.

Turning to `CC[C@]12CCN(CC3CC3)[C@H](C(=O)c3ccc(O)cc31)[C@@H]2C` (relative stereo) [Example 29, 1,2,3,4,5,6-hexahydro-1-oxo-3-cyclopropylmethyl-8-hydroxy-6(eq)-ethyl-11(ax)-methyl-2,6-methano-3-benzazocine], the ED50 in [1] (read-out: Tail-flick Agonist Subcutaneous ED50) was found to be 9 ± 10 mg/kg; in [1] (subcutaneously, read-out: agonist ED50), 9 ± 10 mg/kg; in data set [6] (setting [19]), 11 mg/kg; in [6] (setting [20]), 0.053 mg/kg; in [2] (setting [21]), 7.6 mg/kg; in data set [2] (setting [22]), 0.045 mg/kg. The ED50 in [2] (setting [23]) came out at 0.074 mg/kg; in [10] (setting [25]) it was 9.1 mg/kg; in data set [10] (setting [26]), 0.03 mg/kg. Further, the narcotic activity result in data set [1] (setting [24]) is recorded as “no narcotic activity”. Also, in data set [1], the activity as agonist result is recorded as “active”. Moreover, the minimal effective dose in data set [5] turned out to be 0.025 mg/kg. The analgesic activity result in data set [7] is “strong analgesic activity”. Moreover, the figures for the narcotic antagonist activity entry in data set [3] (setting [24]) and in data set [3] (setting [16]) were “weak narcotic antagonist activity” and “Inactive”, respectively.

With `C[C@H]1[C@H]2C(=O)c3ccc(O)cc3[C@]1(C)CCN2CCc1ccccc1` (relative stereo) [Example 34, 1,2,3,4,5,6-hexahydro-1-oxo-3-(2-phenylethyl)-8-hydroxy-6(eq),11(ax)-dimethyl-2,6-methano-3-benzazocine], the figures for the ED50 in [1] (setting [14]) and in [2] (setting [15]) were 56 ± 9.1 mg/kg and 4.2 mg/kg, respectively. In addition, the activity as agonist entry in [1] was “weakly active”. Besides, in data set [3] (setting [16]), the narcotic antagonist activity entry is “inactive”.

Turning to `COc1ccc2c(c1)[C@]1(C)CCN(C)[C@@H]([C@@H]1C)[C@]2(C)O` (relative stereo) [Compound 14], the “activity in all other tests” value in data set [11] was “inactive”.

Regarding `C[C@H]1[C@H]2[C@H](O)c3ccc(O)cc3[C@]1(C)CCN2CC1CC1` (relative stereo) [Example 18, 1,2,3,4,5,6-hexahydro-1(eq),8-dihydroxy-3-cyclopropylmethyl-6(eq), 11(ax)-dimethyl-2,6-methano-3-benzazocine hydrochloride], the ED50 in data set [4] (setting [18]) turned out to be 11 mg/kg; in data set [2] (setting [15]), 10 mg/kg.

For `C=CCN1CC[C@@]2(C)c3cc(O)ccc3[C@@H](O)[C@@H]1[C@@H]2C` (relative stereo) [Example 17, 1,2,3,4,5,6-hexahydro-1(eq),8-dihydroxy-3-allyl-6(eq),11(ax)-dimethyl-2,6-methano-3-benzazocine], the ED50 in [4] (setting [18]) turned out to be 0.98 mg/kg; in data set [2] (setting [15]), 4.8 mg/kg.
